Laboratory results published in PMC9354042, “Discovery of BRAF/HDAC Dual Inhibitors Suppressing Proliferation of Human Colorectal Cancer Cells” (Frontiers in Chemistry, 2022).
pIC50: −log10 of the molar value.

Legend:
BRAF^V600E = target: T1, BRAF^V600E (Homo sapiens, UniProt P15056, V600E); test: BRAF V600E enzymatic activity, FRET-based Z'-Lyte kinase assay; assay type: biochemical
T1 construct: purchased Invitrogen
Protocol: (§1) The experiments were performed according to the instructions of the manufacturer. […] For each assay, 10 μl kinase reactions were added to 384-well plate, mixed thoroughly, and incubated for 1 hour at room temperature. Then, a 5 μl development solution was added to each well and the plate was incubated for another 1 h at room temperature. Then, a 5 μl stop reagent was loaded to stop the reaction. For the control setting, a 5 μl phospho-peptide solution instead of kinase/peptide mixture was used as 100% phosphorylation control. […] The plate was measured on an EnVision Multilabel Reader (Perkin-Elmer). Curve fitting and data presentations were performed using GraphPad Prism, version 5.0. Every experiment was repeated at least two times.

HDAC6 = target: T2, HDAC6 (Homo sapiens, UniProt Q9UBN7); test: HDAC6 fluorescent-based enzymatic activity assay; assay type: biochemical; conditions: Table 1; read-out: Enzymatic IC50 HDAC6
T2 construct: purchased BPS Bioscience
T2 sequence (Q9UBN7 1-1215): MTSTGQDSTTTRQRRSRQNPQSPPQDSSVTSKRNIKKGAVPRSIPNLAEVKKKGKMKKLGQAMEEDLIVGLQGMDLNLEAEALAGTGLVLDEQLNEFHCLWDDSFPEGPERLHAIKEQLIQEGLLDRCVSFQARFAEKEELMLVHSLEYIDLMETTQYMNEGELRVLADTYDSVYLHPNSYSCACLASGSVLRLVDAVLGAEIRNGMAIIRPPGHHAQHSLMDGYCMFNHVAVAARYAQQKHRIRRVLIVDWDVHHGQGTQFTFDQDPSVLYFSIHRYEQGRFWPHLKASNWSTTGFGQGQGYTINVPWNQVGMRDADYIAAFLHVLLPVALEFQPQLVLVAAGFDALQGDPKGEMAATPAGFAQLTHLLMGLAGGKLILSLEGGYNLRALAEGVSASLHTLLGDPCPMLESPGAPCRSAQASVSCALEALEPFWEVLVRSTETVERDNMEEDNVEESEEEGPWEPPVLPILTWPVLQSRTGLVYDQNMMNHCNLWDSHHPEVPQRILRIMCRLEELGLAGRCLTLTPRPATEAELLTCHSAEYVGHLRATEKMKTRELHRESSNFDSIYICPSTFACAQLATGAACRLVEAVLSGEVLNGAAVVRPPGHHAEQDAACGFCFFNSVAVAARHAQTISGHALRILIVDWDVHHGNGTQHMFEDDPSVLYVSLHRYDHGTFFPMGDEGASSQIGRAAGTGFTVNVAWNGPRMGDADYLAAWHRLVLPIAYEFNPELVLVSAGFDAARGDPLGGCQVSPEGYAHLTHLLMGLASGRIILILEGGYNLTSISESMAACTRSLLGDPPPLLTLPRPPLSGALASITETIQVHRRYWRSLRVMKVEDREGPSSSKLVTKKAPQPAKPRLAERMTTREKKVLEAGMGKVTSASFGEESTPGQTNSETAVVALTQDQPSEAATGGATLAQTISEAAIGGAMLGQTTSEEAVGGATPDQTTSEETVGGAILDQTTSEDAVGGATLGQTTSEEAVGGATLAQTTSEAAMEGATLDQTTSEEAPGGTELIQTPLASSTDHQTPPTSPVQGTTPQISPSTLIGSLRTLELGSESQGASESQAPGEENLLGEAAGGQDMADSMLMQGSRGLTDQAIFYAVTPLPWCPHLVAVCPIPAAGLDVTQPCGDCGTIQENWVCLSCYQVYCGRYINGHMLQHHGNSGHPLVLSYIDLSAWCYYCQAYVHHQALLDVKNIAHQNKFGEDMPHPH
Protocol: (§2) The purified recombinant Human HDACs and their corresponding substrates were purchased from BPS Bioscience (BPS Bioscience Inc., United States). The assays were carried out in a 384-well format using the BPS fluorescent–based HDAC activity assay according to the manufacturer’s protocol. In brief, […] of the HDAC reaction mixture was composed of HDAC assay buffer, […] BSA, serial diluted test compounds, appropriate concentration of HDACs, and […] fluorogenic substrate, the mixture was incubated at 37°C for 60 min, and then stopped by the addition of developer containing trypsin and TSA. After 20 min of incubation, the fluorescence was detected at the excitation wavelength of 360 nm and the emission wavelength of 460 nm using the EnVision Multilabel Reader (PerkinElmer Inc., United States). The analytical software, GraphPad Prism 5.0 (GraphPad Software, Inc., United States) was used to generate IC50 value via non-linear regression analysis.

HDAC1 = target: T3, HDAC1 (Homo sapiens, UniProt Q13547); test: HDAC1 fluorescent-based enzymatic activity assay; assay type: biochemical; conditions: Table 1; read-out: Enzymatic IC50 HDAC1
T3 construct: purchased BPS Bioscience
Protocol: as §2

BRAF (wild-type) [1] = target: T4, BRAF (wild-type) (Homo sapiens, UniProt P15056); test: wild-type BRAF enzymatic activity, Z'-Lyte kinase assay; assay type: biochemical; conditions: wild-type BRAF kinase; read-out: BRAF^wt enzymatic IC50
T4 construct: purchased Invitrogen
Protocol: as §1

BRAF (wild-type) [2] = test: as above; assay type: biochemical; conditions: ratio of enzymatic IC50
Protocol: as §1

HDAC8 = target: T5, HDAC8 (Homo sapiens, UniProt Q9BY41); test: HDAC8 fluorescent-based enzymatic activity assay; assay type: biochemical; conditions: for fold more potent than 14b against HDAC8: HDAC8 IC50 relative to 14b; for pIC50: Supplementary Table 1, read-out: HDAC8 Enzymatic IC50
T5 construct: purchased BPS Bioscience
T5 sequence (Q9BY41 1-377): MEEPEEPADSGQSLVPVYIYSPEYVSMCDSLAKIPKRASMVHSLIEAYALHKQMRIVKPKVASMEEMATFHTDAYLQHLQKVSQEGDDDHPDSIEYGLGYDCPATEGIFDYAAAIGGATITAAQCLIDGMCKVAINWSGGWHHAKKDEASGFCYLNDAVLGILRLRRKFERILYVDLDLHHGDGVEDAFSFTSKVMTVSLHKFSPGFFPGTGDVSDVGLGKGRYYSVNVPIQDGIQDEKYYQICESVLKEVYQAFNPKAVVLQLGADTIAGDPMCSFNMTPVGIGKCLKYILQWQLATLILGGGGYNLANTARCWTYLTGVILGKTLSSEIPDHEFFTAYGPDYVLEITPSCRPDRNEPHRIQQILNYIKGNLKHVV
Protocol: as §2

HT-29 cells = test: Antiproliferation CCK-8 assay, HT-29; assay type: cell-based; conditions: Homo sapiens; CCK-8, 72 h, HT-29 (BRAF^V600E); means of three independent experiments; read-out: Cellular IC50 HT-29
Protocol: (§3) HCT116 and HT-29 cells were obtained from the Shanghai Cell Bank (Type Culture Collection (TCC), Chinese Academy of Sciences) and cultured in DMEM (10–013-CVR, corning) supplemented with 10% fetal bovine serum (04-001-1A, BI), 1% penicillin/streptomycin (03-031-1B, BI).
(§4) The cells in the logarithmic phase were placed in 96-well plates (∼3000 cells/well) in a complete medium. After incubation overnight, the cells were exposed to the corresponding compounds or vehicle control at the indicated concentration for a further 72 h. Cell proliferation was evaluated using Cell Counting Kit 8 (CCK8, CK04, Dojindo Laboratories, Kumamoto, Japan). OD450 and OD650 were determined using a microplate reader. Absorbance rate (A) for each well was calculated as OD450 −OD650. […] Each IC50 value is expressed as mean ± SD. As is the absorbance rate of the test compound well, Ac is the absorbance rate of the well without either the cell or test compound, and Ab is the absorbance rate of the well with the cell and vehicle control.

HCT116 cells = test: Antiproliferation CCK-8 assay, HCT116; assay type: cell-based; conditions: Homo sapiens, HCT-116; CCK-8, 72 h, HCT116 (wild-type BRAF); means of three independent experiments; read-out: Cellular IC50 HCT116
Protocol: as §3, §4

[3] = tested on: Ac-histone H3, Ac-α-tubulin, p-ERK in HT-29 cells; test: Western blot analysis of HDAC and RAF pathway in HT-29 cells; assay type: cell-based, human; conditions: 0.12-10 μM, 6 h
Protocol: (§5) FIGURE 3 Characterization of dual inhibition of HDAC and RAF pathway. Western blot analysis of 14b in HCT116 cells (A) and in HT-29 cells (B). Cells were treated with 0 μM, 0.12 μM, 0.37 μM, 1.1 μM, 3.3 μM, and 10 μM of drugs and incubated for 6 h. The cell lysis was subjected to Western blot analysis.
(§6) The cells were treated with various concentrations of 14b for 6 h. Then, the cells were lysed using 1×SDS sample lysis buffer (CST recommended) with protease and phosphatase inhibitors. Cell lysates were loaded and electrophoresed onto 8–12% SDS-PAGE gel, and then the separated proteins were transferred to a PVDF film. The film was blocked with 5% BSA (Sigma-Aldrich, St. Louis, MO, United States) in a TBS solution containing 0.5% Tween-20 for 4 h at room temperature, then incubated with the corresponding primary antibody (1:1000–1:200) overnight at 4°C. After washing with TBST, HRP-conjugated secondary antibody was incubated for 2 h. The protein signals were visualized by the ECL Western Blotting Detection Kit (Thermo Scientific, Grand Island, NY, United States), and detected with Amersham Imager 600 system (GE, Boston, MA, United States).

[4] = tested on: Ac-histone H3, Ac-α-tubulin, p-ERK in HCT116 cells; test: Western blot analysis of HDAC and RAF pathway in HCT116 cells; assay type: cell-based, human; conditions: 0.12-10 μM, 6 h; for phosphorylation of ERK (p-ERK): HCT116 cells (wild-type BRAF, K-RAS G13D); for acetylated histone H3 (Ac-histone H3) / acetylated α-tubulin (Ac-α-tubulin): HCT116 cells
Protocol: as §5, §6

T3 sequence (Q13547 whole entry): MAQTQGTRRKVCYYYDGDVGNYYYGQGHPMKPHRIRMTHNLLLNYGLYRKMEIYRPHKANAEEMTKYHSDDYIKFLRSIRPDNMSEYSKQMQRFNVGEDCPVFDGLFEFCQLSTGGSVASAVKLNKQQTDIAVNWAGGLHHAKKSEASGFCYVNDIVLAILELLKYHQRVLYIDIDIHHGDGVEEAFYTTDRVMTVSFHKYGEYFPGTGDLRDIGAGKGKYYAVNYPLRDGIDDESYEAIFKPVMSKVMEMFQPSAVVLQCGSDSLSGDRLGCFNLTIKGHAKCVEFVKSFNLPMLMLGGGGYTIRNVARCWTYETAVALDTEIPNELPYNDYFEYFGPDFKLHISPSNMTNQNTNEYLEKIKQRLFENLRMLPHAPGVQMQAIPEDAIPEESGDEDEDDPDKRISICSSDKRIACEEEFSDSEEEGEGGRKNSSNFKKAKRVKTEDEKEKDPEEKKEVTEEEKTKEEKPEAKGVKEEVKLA
T1 sequence (P15056 whole entry V600E): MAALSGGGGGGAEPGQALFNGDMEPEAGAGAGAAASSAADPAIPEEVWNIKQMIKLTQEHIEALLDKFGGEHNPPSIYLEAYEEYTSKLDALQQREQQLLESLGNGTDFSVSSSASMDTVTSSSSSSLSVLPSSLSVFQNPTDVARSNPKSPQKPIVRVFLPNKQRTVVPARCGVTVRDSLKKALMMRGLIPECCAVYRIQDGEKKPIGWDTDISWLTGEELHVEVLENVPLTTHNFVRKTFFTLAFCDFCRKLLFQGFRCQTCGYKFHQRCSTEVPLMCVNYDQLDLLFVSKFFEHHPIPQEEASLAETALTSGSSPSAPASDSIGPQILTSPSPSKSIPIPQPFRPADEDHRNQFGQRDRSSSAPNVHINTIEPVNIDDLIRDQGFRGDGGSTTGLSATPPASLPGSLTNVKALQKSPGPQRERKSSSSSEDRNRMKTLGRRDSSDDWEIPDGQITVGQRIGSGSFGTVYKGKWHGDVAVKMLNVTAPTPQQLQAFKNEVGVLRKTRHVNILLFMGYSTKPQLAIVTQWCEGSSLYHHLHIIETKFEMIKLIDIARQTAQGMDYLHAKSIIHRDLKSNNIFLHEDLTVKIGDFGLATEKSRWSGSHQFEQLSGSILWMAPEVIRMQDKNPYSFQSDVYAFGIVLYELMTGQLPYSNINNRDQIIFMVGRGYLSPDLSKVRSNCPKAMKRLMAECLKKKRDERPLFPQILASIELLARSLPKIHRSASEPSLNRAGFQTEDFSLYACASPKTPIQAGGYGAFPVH
T4 sequence (P15056 whole entry): as the sequence (P15056 whole entry V600E) above, with E600V counted along it

Row | pIC50 (BRAF^V600E) | pIC50 (HDAC6) | pIC50 (HDAC1) | pIC50 (BRAF (wild-type) [1]) | fold more potent than 14b against HDAC8 (HDAC8) [fold] | pIC50 (HDAC8) | pIC50 (HT-29 cells) | pIC50 (HCT116 cells) | SMILES | selectivity of BRAF^V600E over wild-type BRAF (BRAF (wild-type) [2]) | acetylated histone H3 (Ac-histone H3) [3] | acetylated α-tubulin (Ac-α-tubulin) [3] | phosphorylation of ERK (p-ERK) [3] | phosphorylation of ERK (p-ERK) [4] | acetylated histone H3 (Ac-histone H3) [4] | acetylated α-tubulin (Ac-α-tubulin) [4] | further results
1 | 8.29 | 6.85 | 7.81 | 8.41 | 3.4 | 6.06 | 6.02 | 5.97 | O=C(CCCCCCNc1nccc(-c2sc(-c3ccccc3)nc2-c2cccc(NS(=O)(=O)c3c(F)cccc3F)c2F)n1)NO [14j, 7-{[4-(4-(3-(2,6-Difluorophenylsulfonamido)-2-Fluorophenyl)-2-Phenylthiazol-5-yl)Pyrimidin-2-yl]Amino}-N-Hydroxyheptanamide] | slightly more potent against wild-type BARF | – | – | – | – | – | – | –
2 | – | – | – | – | – | – | 6.68 | < 5.00 | CC(C)(C)c1nc(-c2cccc(NS(=O)(=O)c3c(F)cccc3F)c2F)c(-c2ccnc(N)n2)s1 [Dabrafenib, dabrafenib] | – | had little impact | had little impact | reduced | paradoxically induced | had little impact | had little impact | phosphorylation of ERK (p-ERK) ([3]; listed as dabrafenib): reduced the phosphorylation of ERK; phosphorylation of ERK (p-ERK) ([4]; listed as dabrafenib): causes paradoxical activation of ERK
3 | 8.90 | 7.00 | 6.32 | 8.54 | 4.8 | 6.21 | 6.96 | 5.69 | CC(C)(C)c1nc(-c2cccc(NS(=O)(=O)c3ccccc3)c2F)c(-c2ccnc(NCCCCCCC(=O)NO)n2)s1 [21c, 7-{[4-(2-(Tert-Butyl)-4-(2-Fluoro-3-(Phenylsulfonamido)Phenyl)Thiazol-5-yl)Pyrimidin-2-yl]Amino}-N-Hydroxyheptanamide] | about 2 fold | – | – | – | – | – | – | –
4 | – | – | – | – | – | – | – | – | O=C(CCCCCCC(=O)Nc1ccccc1)NO [Vorinostat, vorinostat] | – | dose-dependently induced | dose-dependently induced | had little impact | had little impact | dose-dependently induced | dose-dependently induced | acetylated histone H3 (Ac-histone H3) ([3]; listed as vorinostat): upregulated; acetylated α-tubulin (Ac-α-tubulin) ([3]; listed as vorinostat): upregulated; acetylated histone H3 (Ac-histone H3) ([4]; listed as vorinostat): upregulated; acetylated α-tubulin (Ac-α-tubulin) ([4]; listed as vorinostat): upregulated
